Reference: patent US4816490A, “Novel therapeutic use of a derivative of indane dione and the pharmaceutical compositions intended for this use” (priority 1987, dated 1989)

System: hyperlipidaemia induced by TRITON WR 1339
Assay: Hyperlipidaemia induced by TRITON WR 1339 in the Wistar rat
Assay type: in vivo
Conditions: for Dose dependence of hypolipaemiant activity: 250 and 500 mg/kg
Protocol: Feeding by standard Regimen UAR A04
Drinking water ad libitum
6 animals per dose in a cage in MAKROLON of 60×40 cm filled with shavings of wood.
10 mn after: administration of the test compound
6 hours after: 1st sampling of the blood at the retro-orbital sinus
Total cholesterol by the colorimetric method of RICHMOND
Cholesterol in HDL by the colorimetric method of RICHMOND after precipitation by CONCANAVALIN A
Cholesterol in LDL by the colorimetric method of RICHMOND after precipitation by CONCANAVALIN A
Total lipids by the Zollner's sulphophosphovanillic method
Triglycerids by the BUCOLO's enzymatic method.

COc1ccc(C(=O)CC2(O)C(=O)c3ccccc3C2=O)cc1OC [Compound of the invention, 2-[(3,4-dimethoxy-benzoyl)-methyl]-2-hydroxy-1,3-dioxo Indane]
Dose dependence of hypolipaemiant activity (6 hours after TRITON WR 1339): directly proportional to the doses
Dose dependence of hypolipaemiant activity (24 hours after TRITON WR 1339): inversely proportional to the dose
Total Score vs 250 mg/kg Procetofene (6 hours after, 125 mg/kg oral): 2.75
Total cholesterol score vs 250 mg/kg Procetofene (6 hours after, 125 mg/kg oral): 2.44
Triglycerids score vs 250 mg/kg Procetofene (6 hours after, 125 mg/kg oral): 0.31
Cholesterol HDL/LDL score vs 250 mg/kg Procetofene (6 hours after, 250 mg/kg oral): 0.87
Total Score vs 250 mg/kg Procetofene (6 hours after, 250 mg/kg oral): 3.74
Total cholesterol score vs 250 mg/kg Procetofene (6 hours after, 250 mg/kg oral): 1.15
Total lipids score vs 250 mg/kg Procetofene (6 hours after, 250 mg/kg oral): 0.92
Triglycerids score vs 250 mg/kg Procetofene (6 hours after, 250 mg/kg oral): 0.80
Cholesterol HDL/LDL score vs 250 mg/kg Procetofene (6 hours after, 500 mg/kg oral): 2.00
Total Score vs 250 mg/kg Procetofene (6 hours after, 500 mg/kg oral): 4.95
Total cholesterol score vs 250 mg/kg Procetofene (6 hours after, 500 mg/kg oral): 0.35
Total lipids score vs 250 mg/kg Procetofene (6 hours after, 500 mg/kg oral): 1.00
Triglycerids score vs 250 mg/kg Procetofene (6 hours after, 500 mg/kg oral): 1.60
Total Score vs 250 mg/kg Procetofene (6 hours after, 750 mg/kg oral): 1.72
Total cholesterol score vs 250 mg/kg Procetofene (6 hours after, 750 mg/kg oral): 0.78
Total lipids score vs 250 mg/kg Procetofene (6 hours after, 750 mg/kg oral): 0.14
Triglycerids score vs 250 mg/kg Procetofene (6 hours after, 750 mg/kg oral): 0.80
Cholesterol HDL/LDL score vs 250 mg/kg Procetofene (24 hours after, 125 mg/kg oral): 1.40
Total Score vs 250 mg/kg Procetofene (24 hours after, 125 mg/kg oral): 1.94
Total cholesterol score vs 250 mg/kg Procetofene (24 hours after, 125 mg/kg oral): 0.28
Triglycerids score vs 250 mg/kg Procetofene (24 hours after, 125 mg/kg oral): 0.26
Cholesterol HDL/LDL score vs 250 mg/kg Procetofene (24 hours after, 250 mg/kg oral): 1.10
Total Score vs 250 mg/kg Procetofene (24 hours after, 250 mg/kg oral): 4.64
Total cholesterol score vs 250 mg/kg Procetofene (24 hours after, 250 mg/kg oral): 1.13
Total lipids score vs 250 mg/kg Procetofene (24 hours after, 250 mg/kg oral): 1.56
Triglycerids score vs 250 mg/kg Procetofene (24 hours after, 250 mg/kg oral): 0.85
Cholesterol HDL/LDL score vs 250 mg/kg Procetofene (24 hours after, 500 mg/kg oral): 0.80
Total Score vs 250 mg/kg Procetofene (24 hours after, 500 mg/kg oral): 3.66
Total cholesterol score vs 250 mg/kg Procetofene (24 hours after, 500 mg/kg oral): 0.75
Total lipids score vs 250 mg/kg Procetofene (24 hours after, 500 mg/kg oral): 1.62
Triglycerids score vs 250 mg/kg Procetofene (24 hours after, 500 mg/kg oral): 0.49
Cholesterol HDL/LDL score vs 250 mg/kg Procetofene (24 hours after, 750 mg/kg oral): 0.40
Total Score vs 250 mg/kg Procetofene (24 hours after, 750 mg/kg oral): 1.73
Total cholesterol score vs 250 mg/kg Procetofene (24 hours after, 750 mg/kg oral): 0.61
Triglycerids score vs 250 mg/kg Procetofene (24 hours after, 750 mg/kg oral): 0.72
minimal effective dose (Rattus norvegicus, TRITON WR 1339, rats, oral, read-out: Oral dose from which hyperlipaemia was antagonized or decreased): ≥ 125 mg/kg
Antihyperlipaemiant activity, compound vs Procetofene (same doses (250 and 500 mg/kg)): antihyperlipaemiant activity about equal
